Experimental data: patent publication US7098204B2 (C.N.R.S., priority 1999, dated 2006)
Values after ≈ are worked out from the molar mass of the structure shown. Like-named read-outs stand apart in the source and are kept apart here.

Legend:
GSK3-β = target: T1, GSK3-β (UniProt P18266); assay: GSK-3β kinase assay (GS-1 peptide); type: biochemical, rabbit
T1 construct: GSK-3β was either purified from rabbit muscle or expressed in and purified from insect Sf9 cells [18]
Protocol: (§1) Kinases activities were assayed in Buffer A or C (unless otherwise stated), at 30° C., at a final ATP concentration of 15 μM. Blank values were subtracted and activities calculated as pmoles of phosphate incorporated for a 10 min. incubation (usually expressed in % of the maximal activity, i.e. without inhibitors). Controls were performed with appropriate dilutions of Me2SO. In some cases phosphorylation of the substrate was assessed by autoradiography after SDS-PAGE. IC50 values were estimated from the dose-response curves. • CDK1/cyclin B was extracted in homogenisation buffer from M phase starfish (Marthasterias glacialis) oocytes and purified by affinity chromatography on p9^CKShs1-Sepharose beads, from which it was eluted by free p9^CKShs1 as described. The kinase activity was assayed in buffer C, with 1 mg histone H1/ml, in the presence of 15 μM [γ-^32P] ATP (3,000 Ci/mmol; 1 mCi/ml) in a final volume of 30 μl. After 10 min. incubation at 30° C., 25 μl aliquots of supernatant were spotted onto 2.5×3 cm pieces of Whatman P81 phosphocellulose paper, and, 20 sec. later, the filters were washed five times (for at least 5 min. each time) in a solution of 10 ml phosphoric acid/liter of water. The wet filters were counted in the presence of 1 ml ACS (Amersham) scintillation fluid. • GSK-3β was either purified from rabbit muscle or expressed in and purified from insect Sf9 cells. It was assayed, following a 1/100 dilution in 1 mg BSA/ml 10 mM DTT, with 5 μl 40 μM GS-1 peptide as a substrate, in buffer A, in the presence of 15 μM [γ-^32P] ATP (3,000 Ci/mmol; 1 mCi/ml) in a final volume of 30 μl. […] Its activity was assayed in buffer C as described for CDK1/cyclin B. • CDK2/cyclin A, CDK2/cyclin E, CDK3/cyclin E, CDK4/cyclin D1, CDK6/cyclin D2, His-tagged erk1 and erk2, protein kinase C isoforms, the catalytic subunit of cAMP-dependent protein kinase, cGMP-dependent protein kinase, Myosin light chain kinase, casein kinases 1 & 2, ASK-γ (a plant homologue of GSK-3), insulin receptor tyrosine kinase domain (CIRK-41), c-raf, MAPKK, c-jun N terminal kinase (obtained from Promega), c-src kinase and v-abl kinase were assayed as described. Electrophoresis and Western Blotting

CDK1/cyclin B = CDK1/cyclin B kinase assay (histone H1); type: biochemical, starfish (Marthasterias glacialis); details: 15 μM ATP; −(x) = no effect at highest concentration x tested
Protocol: as §1

casein kinase 1 = casein kinase 1 assay; type: biochemical; details: 15 μM ATP; −(x) = no effect at highest concentration x tested; read-out: IC50 casein kinase 1 (CK 1)
Protocol: as §1

cdk5/p25 = cdk5/p25 (Homo sapiens, UniProt Q00535); assay: CDK5/p25 kinase assay; type: biochemical; details: for IC50: 15 μM ATP, −(x) = no effect at highest concentration x tested
Chain of cdk5/p25 (Q00535 whole entry, species assumed): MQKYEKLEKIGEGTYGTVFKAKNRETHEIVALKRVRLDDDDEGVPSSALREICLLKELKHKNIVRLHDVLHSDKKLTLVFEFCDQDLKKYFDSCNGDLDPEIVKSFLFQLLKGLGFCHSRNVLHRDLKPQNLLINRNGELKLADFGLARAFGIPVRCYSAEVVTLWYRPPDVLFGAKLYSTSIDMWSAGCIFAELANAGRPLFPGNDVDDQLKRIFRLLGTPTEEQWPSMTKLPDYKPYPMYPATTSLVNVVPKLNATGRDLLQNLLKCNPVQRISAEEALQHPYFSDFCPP
Chain of cdk5/p25 (Q15078 99-307 partner limits assumed, species assumed): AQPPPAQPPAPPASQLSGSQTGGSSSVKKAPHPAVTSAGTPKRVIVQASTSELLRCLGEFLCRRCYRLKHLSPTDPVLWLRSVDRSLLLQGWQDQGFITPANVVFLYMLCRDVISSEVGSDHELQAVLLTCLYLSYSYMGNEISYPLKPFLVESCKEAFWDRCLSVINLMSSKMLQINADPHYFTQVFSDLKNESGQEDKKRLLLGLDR
Protocol: as §1

P388 cell line = assay: Inhibition of cell proliferation, P388; type: cell-based
kidney, A498 = assay: Human cancer cell line A498 proliferation; type: cell-based
colon, KM20L2 = assay: Human cancer cell line KM20L2 proliferation; type: cell-based; details: KM-20L2
brain, SF-295 = assay: Human cancer cell line SF-295 proliferation; type: cell-based
ovary, OVCAR-3 = assay: Human cancer cell line OVCAR-3 proliferation; type: cell-based
melanoma, SK-MEL-5 = assay: Human cancer cell line SK-MEL-5 proliferation; type: cell-based
lung, H460 = assay: Human cancer cell line H460 proliferation; type: cell-based; details: NCI-H460
[1] = tested on: GSK-3β like activity in Sf9 cells; assay: Tau (htau23) phosphorylation in Sf9 cells, Western blotting; type: cell-based; details: 50 μM, 5 hrs, Sf9 cells expressing htau23
[2] = 15 μM ATP, −(x) = no effect at highest concentration x tested, read-out: IC50 GSK3-β

Compound	IC50 (GSK3-β; [2])	IC50 (CDK1/cyclin B)	IC50 (casein kinase 1)	IC50 (cdk5/p25)	also measured
agelastatin A	12 µM	> 100 µM	> 100 µM	> 100 µM	–
O=C1NC(=O)/C(=C2/CCNC(=O)c3[nH]c(Br)cc32)N1 [axinohydantoin]	3 µM	4 µM	4.5 µM	7 µM	–
Nc1ncc(/C=C/CNC(=O)c2cc(Br)c(Br)[nH]2)[nH]1 [oroïdin]	20 µM	> 100 µM	> 100 µM	50 µM	–
NC1=N[C@H]2n3c(cc(Br)c3Br)C(=O)N3CCC[C@]23N1 [dibromophakellin, reference compound]	–	–	–	–	IC50 (kidney, A498): 17.8 µg/mL (≈ 45.8 µM); IC50 (colon, KM20L2): 20.1 µg/mL (≈ 51.7 µM); IC50 (brain, SF-295): 18.8 µg/mL (≈ 48.3 µM); IC50 (ovary, OVCAR-3): 15.7 µg/mL (≈ 40.4 µM); IC50 (melanoma, SK-MEL-5): 17 µg/mL (≈ 43.7 µM); IC50 (lung, H460): 22 µg/mL (≈ 56.5 µM)
CN1CC[C@H](c2c(O)cc(O)c3c(=O)cc(-c4ccccc4Cl)oc23)[C@H](O)C1 [flavopiridol, reference compound]	–	–	–	–	AT100 signal (tau phosphorylated at T212 and S214) [1]: disappearance of AT100 signal
Nc1ncc(C2c3nc(N)[nH]c3CC(CNC(=O)c3cc(Br)c(Br)[nH]3)C2CNC(=O)c2cc(Br)c(Br)[nH]2)[nH]1 (centres unmarked) [dibromoageliferin]	11 µM	> 100 µM	> 100 µM	> 100 µM	–
O=C([O-])c1ccc[n+](CCOC(=O)c2cc(Br)c[nH]2)c1 [agelongine]	> 100 µM	> 100 µM	> 100 µM	> 100 µM	–
O=C1N[C@H]2n3c(cc(Br)c3Br)C(=O)N3CCC[C@]23N1 [dibromophakellstatin]	> 10 µM	> 10 µM	> 10 µM	> 100 µM	IC50 (kidney, A498): 0.21 µg/mL (≈ 0.538 µM); IC50 (colon, KM20L2): 0.11 µg/mL (≈ 0.282 µM); IC50 (brain, SF-295): 1.5 µg/mL (≈ 3.85 µM); IC50 (ovary, OVCAR-3): 0.46 µg/mL (≈ 1.18 µM); IC50 (melanoma, SK-MEL-5): 0.11 µg/mL (≈ 0.282 µM); IC50 (lung, H460): 0.62 µg/mL (≈ 1.59 µM)

Now from value to compound, other results behind:

IC50 (GSK3-β; [2])	IC50 (CDK1/cyclin B)	IC50 (casein kinase 1)	IC50 (cdk5/p25)	Compound	also measured
> 100 µM	70 µM	> 100 µM	> 100 µM	Nc1ncc(C2=CCNC(=O)c3[nH]c(Br)c(Br)c32)[nH]1 [stevensine/odiline]	–
0.16 µM	0.13 µM	0.55 µM	1.5 µM	diacetylhymenialdisine	IC50 on P388 cell line (P388 cell line): 0.56 µg/mL; IC50 (P388 cell line; read-out: IC50 on P388 cell line in μM (parentheses)): 1.7 µM
0.6 µM	1.3 µM	1.1 µM	3 µM	diacetyldebromohymenialdisine	–
> 100 µM	> 100 µM	> 100 µM	> 100 µM	NC1=NC(=O)/C(=C/CCNC(=O)c2cc(Br)c(Br)[nH]2)N1 [dispacamide A]	–
> 100 µM	> 100 µM	> 100 µM	> 100 µM	Nc1nc([C@H]2[C@H](CNC(=O)c3cc(Br)c[nH]3)[C@@H](CNC(=O)c3cc(Br)c[nH]3)[C@@H]2c2c[nH]c(N)n2)c[nH]1 [sceptrin]	–
–	> 100 µM	> 100 µM	> 100 µM	NC1=N[C@H]2c3c([nH]c(Br)c3Br)C(=O)N3CCC[C@]23N1 [dibromocantharelline]	IC50 (GSK3-β; read-out: IC50 towards GSK-3β): 3 µM
12 µM	> 100 µM	> 100 µM	4 µM	Nc1ncc(/C=C/CNC(=O)c2cc(Br)c[nH]2)[nH]1 [hymenidin]	kinase selectivity among CDK1, CDK5, GSK-3β, CK1 (cdk5/p25; in words): selective for CDK5
–	> 100 µM	> 100 µM	> 100 µM	Nc1ncc(/C=C/CNC(=O)c2ccc[nH]2)[nH]1 [clathrodin]	–
